Target: T1, GCN2 (Homo sapiens, UniProt Q9P2K8)
T1 construct: purchased Carma Biosciences (so in the source)
Experiment: TR-FRET biochemical assay for inhibition of GCN2 activity
Conditions: 2 nM GCN2, 100 nM GFP-eIF2α, 150 μM ATP, 1.5 hours at 25° C.
Experimental: Exemplary compounds from the above Examples were tested for ability to inhibit GCN2 activity using a time resolved fluorescence energy transfer (TR-FRET) assay. Assay procedures and results are described below for Examples 12-105.
GCN2 protein was obtained from Carma Biosciences (cat #05-153). The protein was diluted in assay buffer (ThermoFisher Scientific, #PV6135), 2 mM dithiothreitol (DTT), to obtain a final concentration of 2 nM and 5 μL was plated in a 384-well white assay plate. Test compounds were serially diluted to 11 concentrations by 3-fold dilution in DMS0 and 10 nL of stock was plated into 384 well white assay plate. DMS0 was used as a vehicle control. GFP-eIF2α protein was obtained from ThermoFisher (cat #PV4809). The protein was diluted in assay buffer to a 2× concentration of 200 nM along with 300 μM ATP (final concentration of 100 nM GFP-eIF2α and 150 μM ATP) in the presence of 2 mM DTT and a […] was added to each well containing the GCN2 protein and test compound. The plate was incubated in the dark at 25° C. for 1.5 hours, shaking at 1250 rpm. Tb-anti P-eIF2α (ThermoFisher cat #PV4815) was diluted to a to a concentration of 1 nM in TR-FRET Dilution Buffer (ThermoFisher cat #PV3574). 10 μL of the Tb-anti P-eIF2a solution was added to the TR-FRET reaction. The plate was incubated in the dark for 2 h at 25° C. shaking at 600 rpm. The FRET signal from the plate was read on a Envision (PerkinElmer) plate reader: • Label 1: Excitation: 340 nm, bandwidth 30 nm; Emission: 495 nm, bandwidth 10 nm. Lag time: 100 μsec. Integration time: 400 μsec. Flashes: 30. • Label 2: Excitation: 340 nm, bandwidth 30 nm; Emission: 520 nm, bandwidth 25 nm. Lag time: 100 μsec. Integration time: 400 μsec. Flashes: 30
The data were analyzed using GraphPad Prism employing a 4-parameter sigmoidal curve fit.

T1 sequence (Q9P2K8 whole entry): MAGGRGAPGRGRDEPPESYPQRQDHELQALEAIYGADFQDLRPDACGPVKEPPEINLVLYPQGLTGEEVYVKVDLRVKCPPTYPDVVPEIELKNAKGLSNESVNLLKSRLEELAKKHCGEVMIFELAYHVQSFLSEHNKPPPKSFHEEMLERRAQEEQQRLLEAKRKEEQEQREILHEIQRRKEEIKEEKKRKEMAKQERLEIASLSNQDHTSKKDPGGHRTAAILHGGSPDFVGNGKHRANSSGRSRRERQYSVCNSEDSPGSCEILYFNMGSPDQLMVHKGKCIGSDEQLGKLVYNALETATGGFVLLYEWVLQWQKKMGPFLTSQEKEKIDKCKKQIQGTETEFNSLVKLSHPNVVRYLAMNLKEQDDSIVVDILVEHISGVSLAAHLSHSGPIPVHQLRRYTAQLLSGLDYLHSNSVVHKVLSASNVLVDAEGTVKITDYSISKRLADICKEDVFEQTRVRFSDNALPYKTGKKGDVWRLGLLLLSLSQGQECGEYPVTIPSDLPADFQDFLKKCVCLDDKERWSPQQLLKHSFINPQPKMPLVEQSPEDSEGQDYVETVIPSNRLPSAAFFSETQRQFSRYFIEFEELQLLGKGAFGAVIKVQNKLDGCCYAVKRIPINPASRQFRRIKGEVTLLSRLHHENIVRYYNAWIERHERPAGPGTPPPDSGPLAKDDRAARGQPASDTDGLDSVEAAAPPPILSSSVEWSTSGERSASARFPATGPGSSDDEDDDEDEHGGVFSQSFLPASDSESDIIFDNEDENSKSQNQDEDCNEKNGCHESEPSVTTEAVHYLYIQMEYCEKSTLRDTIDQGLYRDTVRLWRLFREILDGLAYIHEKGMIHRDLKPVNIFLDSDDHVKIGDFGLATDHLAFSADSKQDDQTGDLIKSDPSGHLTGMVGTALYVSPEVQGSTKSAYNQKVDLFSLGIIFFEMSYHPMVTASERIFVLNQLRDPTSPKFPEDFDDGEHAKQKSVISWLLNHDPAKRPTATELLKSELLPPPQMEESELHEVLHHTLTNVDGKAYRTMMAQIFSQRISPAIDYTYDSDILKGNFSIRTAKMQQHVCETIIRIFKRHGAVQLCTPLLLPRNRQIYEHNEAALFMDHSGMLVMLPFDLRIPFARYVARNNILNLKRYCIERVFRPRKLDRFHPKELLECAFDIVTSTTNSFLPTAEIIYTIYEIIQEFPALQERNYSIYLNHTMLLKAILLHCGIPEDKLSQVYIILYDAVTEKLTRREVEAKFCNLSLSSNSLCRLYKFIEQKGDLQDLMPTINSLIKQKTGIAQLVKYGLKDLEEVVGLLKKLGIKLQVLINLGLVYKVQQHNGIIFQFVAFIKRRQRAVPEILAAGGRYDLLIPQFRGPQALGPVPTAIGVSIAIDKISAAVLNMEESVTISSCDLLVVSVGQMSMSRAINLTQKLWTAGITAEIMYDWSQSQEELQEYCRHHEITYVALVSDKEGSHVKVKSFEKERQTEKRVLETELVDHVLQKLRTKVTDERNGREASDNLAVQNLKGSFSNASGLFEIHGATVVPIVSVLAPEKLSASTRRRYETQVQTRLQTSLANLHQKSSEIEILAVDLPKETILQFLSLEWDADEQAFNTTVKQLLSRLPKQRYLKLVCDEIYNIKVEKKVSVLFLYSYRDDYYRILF

| SMILES | IC50 |
| --- | --- |
| COc1ncc(Cl)cc1S(=O)(=O)Nc1ccc(F)c(COc2cnc3[nH]ncc3c2)c1F [Compound 1, 5-chloro-N-[2,4-difluoro-3-([1H-pyrazolo[3,4-b]pyridin-5-yloxy]methyl)phenyl]-2-methoxypyridine-3-sulfonamide] | < 0.05 µM |
| COc1ncc(F)cc1S(=O)(=O)Nc1ccc(F)c(COc2cnc3[nH]nc(C)c3c2)c1F [Compound 2, N-[2,4-difluoro-3-[([3-methyl-1H-pyrazolo[3,4-b]pyridin-5-yl]oxy)methyl]phenyl]-5-fluoro-2-methoxypyridine-3-sulfonamide] | < 0.05 µM |
| COc1ncc(Cl)cc1S(=O)(=O)Nc1ccc(F)c(CNc2cnc3[nH]ncc3c2)c1F [Compound 3, 5-chloro-N-[2,4-difluoro-3-([1H-pyrazolo[3,4-b]pyridin-5-ylamino]methyl)phenyl]-2-methoxypyridine-3-sulfonamide] | 0.05 to 0.5 µM |
| COc1ncc(Cl)cc1S(=O)(=O)Nc1ccc(F)c(OCc2cnc3[nH]ncc3c2)c1F [Compound 4, 5-chloro-N-(2,4-difluoro-3-[1H-pyrazolo[3,4-b]pyridin-5-ylmethoxy]phenyl)-2-methoxypyridine-3-sulfonamide] | < 0.05 µM |
| COc1ncc(Cl)cc1S(=O)(=O)Nc1ccc(F)c(CCc2cnc3n2CCOC3)c1F [Compound 5, 5-chloro-N-[2,4-difluoro-3-(2-[5H,6H,8H-imidazo[2,1-c][1,4]oxazin-3-yl]ethyl)phenyl]-2-methoxypyridine-3-sulfonamide] | > 1 µM |
| COc1ncc(Cl)cc1S(=O)(=O)Nc1ccc(F)c(NCc2cnc3[nH]ncc3c2)c1F [Compound 6, 5-chloro-N-[2,4-difluoro-3-([1H-pyrazolo[3,4-b]pyridin-5-ylmethyl]amino)phenyl]-2-methoxypyridine-3-sulfonamide] | 0.05 to 0.5 µM |
| COc1ncc(Cl)cc1S(=O)(=O)Nc1ccc(F)c(CCc2cnc3[nH]ncc3c2)c1F [Compound 7, 5-chloro-N-[2,4-difluoro-3-(2-[1H-pyrazolo[3,4-b]pyridin-5-yl]ethyl)phenyl]-2-methoxypyridine-3-sulfonamide] | < 0.05 µM |
| CNC(=O)c1cc(CCc2c(F)ccc(NS(=O)(=O)c3cc(Cl)cnc3OC)c2F)[nH]n1 [Compound 8, 5-[2-[3-(5-chloro-2-methoxypyridine-3-sulfonamido)-2,6-difluorophenyl]ethyl]-N-methyl-1H-pyrazole-3-carboxamide] | < 0.05 µM |
| Cc1ncc(F)cc1S(=O)(=O)Nc1ccc(F)c(CCc2cnc3[nH]ncc3c2)c1F [Compound 9, N-(3-(2-(1H-pyrazolo[3,4-b]pyridin-5-yl)ethyl)-2,4-difluorophenyl)-5-fluoro-2-methylpyridine-3-sulfonamide] | < 0.05 µM |
| COc1ncc(C#N)cc1S(=O)(=O)Nc1ccc(F)c(CCc2cnc3[nH]ncc3c2)c1F [Compound 10, 5-cyano-N-[2,4-difluoro-3-(2-[1H-pyrazolo[3,4-b]pyridin-5-yl]ethyl)phenyl]-2-methoxypyridine-3-sulfonamide] | < 0.05 µM |
| COc1ncc(Cl)cc1S(=O)(=O)Nc1ccc(F)c(CCc2ccc3[nH]ncc3n2)c1F [Compound 11, 5-chloro-N-[2,4-difluoro-3-(2-[1H-pyrazolo[4,3-b]pyridin-5-yl]ethyl)phenyl]-2-methoxypyridine-3-sulfonamide] | > 1 µM |
| COc1ncc(Cl)cc1S(=O)(=O)Nc1ccc(F)c(CCc2cnc3[nH]ccc3c2)c1F [Compound 12, 5-chloro-N-[2,4-difluoro-3-(2-[1H-pyrrolo[2,3-b]pyridin-5-yl]ethyl)phenyl]-2-methoxypyridine-3-sulfonamide] | < 0.05 µM |
| COc1ncc(Cl)cc1S(=O)(=O)Nc1ccc(F)c(CCc2cc3cn[nH]c3cn2)c1F [Compound 13, 5-chloro-N-[2,4-difluoro-3-(2-[1H-pyrazolo[3,4-c]pyridin-5-yl]ethyl)phenyl]-2-methoxypyridine-3-sulfonamide] | > 1 µM |
| COc1ncc(Cl)cc1S(=O)(=O)Nc1ccc(F)c(COc2cnc3[nH]nc(C)c3c2)c1F [Compound 14, 5-chloro-N-[2,4-difluoro-3-[([3-methyl-1H-pyrazolo[3,4-b]pyridin-5-yl]oxy)methyl]phenyl]-2-methoxypyridine-3-sulfonamide] | < 0.05 µM |
| COc1ncc(F)cc1S(=O)(=O)Nc1ccc(F)c(CCc2cnc3[nH]ncc3c2)c1F [Compound 15, N-[2,4-difluoro-3-(2-[1H-pyrazolo[3,4-b]pyridin-5-yl]ethyl)phenyl]-5-fluoro-2-methoxypyridine-3-sulfonamide] | < 0.05 µM |
| N#Cc1cc(C(F)(F)F)cc(S(=O)(=O)Nc2ccc(F)c(CCc3cnc4[nH]ncc4c3)c2F)c1 [Compound 16, 3-cyano-N-[2,4-difluoro-3-(2-[1H-pyrazolo[3,4-b]pyridin-5-yl]ethyl)phenyl]-5-(trifluoromethyl)benzenesulfonamide] | 0.05 to 0.5 µM |
| COc1ncc(Cl)cc1S(=O)(=O)Nc1ccc(F)c(CCc2cnc3cn(C)nc3c2)c1F [Compound 17, 5-chloro-N-[2,4-difluoro-3-(2-[2-methylpyrazolo[4,3-b]pyridin-6-yl]ethyl)phenyl]-2-methoxypyridine-3-sulfonamide] | < 0.05 µM |
| COc1ncc(Cl)cc1S(=O)(=O)Nc1ccc(F)c(CCc2cnc3cnn(C)c3c2)c1F [Compound 18, 5-chloro-N-[2,4-difluoro-3-(2-[1-methylpyrazolo[4,3-b]pyridin-6-yl]ethyl)phenyl]-2-methoxypyridine-3-sulfonamide] | < 0.05 µM |
| COc1ncc(Cl)cc1S(=O)(=O)Nc1ccc(F)c(CCc2ccn3cncc3c2)c1F [Compound 19, 5-chloro-N-[2,4-difluoro-3-(2-[imidazo[1,5-a]pyridin-7-yl]ethyl)phenyl]-2-methoxypyridine-3-sulfonamide] | > 1 µM |
| COc1ncc(F)cc1S(=O)(=O)Nc1ccc(F)c(COc2cnc3[nH]ncc3c2C)c1F [Compound 20, N-[2,4-difluoro-3-[([4-methyl-1H-pyrazolo[3,4-b]pyridin-5-yl]oxy)methyl]phenyl]-5-fluoro-2-methoxypyridine-3-sulfonamide] | 0.05 to 0.5 µM |
| COc1ncc(F)cc1S(=O)(=O)Nc1ccc(F)c(COc2cnc3[nH]ncc3c2)c1F [Compound 21, N-[2,4-difluoro-3-([1H-pyrazolo[3,4-b]pyridin-5-yloxy]methyl)phenyl]-5-fluoro-2-methoxypyridine-3-sulfonamide] | < 0.05 µM |
| COc1ncc(Cl)cc1S(=O)(=O)Nc1ccc(F)c(COc2cnc3[nH]ncc3c2C)c1F [Compound 22, 5-chloro-N-[2,4-difluoro-3-[([4-methyl-1H-pyrazolo[3,4-b]pyridin-5-yl]oxy)methyl]phenyl]-2-methoxypyridine-3-sulfonamide] | < 0.05 µM |
| COc1ncc(F)cc1S(=O)(=O)Nc1ccc(F)c(COc2cnc3[nH]ncc3c2OC)c1F [Compound 23, N-[2,4-difluoro-3-[([4-methoxy-1H-pyrazolo[3,4-b]pyridin-5-yl]oxy)methyl]phenyl]-5-fluoro-2-methoxypyridine-3-sulfonamide] | 0.05 to 0.5 µM |
| COc1ncc(Cl)cc1S(=O)(=O)Nc1ccc(F)c(COc2cnc3[nH]ncc3c2OC)c1F [Compound 24, 5-chloro-N-[2,4-difluoro-3-[([4-methoxy-1H-pyrazolo[3,4-b]pyridin-5-yl]oxy)methyl]phenyl]-2-methoxypyridine-3-sulfonamide] | < 0.05 µM |
| COc1ncc(Cl)cc1S(=O)(=O)Nc1ccc(F)c(C(C)Oc2cnc3[nH]ncc3c2)c1F (centres unmarked) [Compound 25, 5-chloro-N-[2,4-difluoro-3-(1-[1H-pyrazolo[3,4-b]pyridin-5-yloxy]ethyl)phenyl]-2-methoxypyridine-3-sulfonamide] | 0.5 to 1 µM |
| COc1ncc(C#N)cc1S(=O)(=O)Nc1ccc(F)c(COc2cnc3[nH]ncc3c2)c1F [Compound 26, 5-cyano-N-[2,4-difluoro-3-([1H-pyrazolo[3,4-b]pyridin-5-yloxy]methyl)phenyl]-2-methoxypyridine-3-sulfonamide] | < 0.05 µM |
| COc1ncc(F)cc1S(=O)(=O)Nc1ccc(F)c(COc2cnc3[nH]ncc3c2C#N)c1F [Compound 27, N-[3-[([4-cyano-1H-pyrazolo[3,4-b]pyridin-5-yl]oxy)methyl]-2,4-difluorophenyl]-5-fluoro-2-methoxypyridine-3-sulfonamide] | < 0.05 µM |
| COc1ncc(Cl)cc1S(=O)(=O)Nc1ccc(F)c(COc2cnc3[nH]ncc3c2C#N)c1F [Compound 28, 5-chloro-N-[3-[([4-cyano-1H-pyrazolo[3,4-b]pyridin-5-yl]oxy)methyl]-2,4-difluorophenyl]-2-methoxypyridine-3-sulfonamide] | < 0.05 µM |
| COc1ncc(Cl)cc1S(=O)(=O)Nc1ccc(F)c(C(C)Nc2cnc3[nH]ncc3c2)c1F (centres unmarked) [Compound 29, 5-chloro-N-[2,4-difluoro-3-(1-[1H-pyrazolo[3,4-b]pyridin-5-ylamino]ethyl)phenyl]-2-methoxypyridine-3-sulfonamide] | > 1 µM |

Reference: patent publication US20240150345A1, “GCN2 MODULATING COMPOUNDS AND USES THEREOF” (HiberCell, Inc., priority 2021, published 2024)
